Laboratory results: publication PMC11369183, “PARP inhibition with rucaparib alone followed by combination with atezolizumab: Phase Ib COUPLET clinical study in advanced gynaecological and triple-negative breast cancers” (British Journal of Cancer, 2024)
Like-named read-outs stand apart in the source and are kept apart here.

Tests used:
[1] = system: cGAS-STING pathway; test: RNA sequencing signature in longitudinal tumour biopsies: cGAS-STING; format: in vivo, human; settings: during rucaparib run-in, in four of five responders
Description: (§1) All patients (Parts 1 and 2) were required to have sufficient archival formalin-fixed paraffin-embedded (FFPE) tumour tissue available for planned analyses. […] A further biopsy at disease progression was optional. Tumour and biomarker characteristics are described according to central review result. However, patients could be enrolled or assigned to a cohort based on local test results, to avoid delaying treatment initiation. […] Patients were ineligible if they had previously received treatment with a PARPi, CD137 agonist, or other ICI (including but not limited to anti-PD-1, anti-PD-L1, and anti-CTLA-4 therapeutic antibodies). […] RNA sequencing reads were first aligned to ribosomal RNA sequences to remove ribosomal reads. The remaining reads were aligned to the human reference genome (National Center for Biotechnology Information Build 38) using Genomic Short-read Nucleotide Alignment Program (GSNAP) version 2013-11-01. To quantify gene expression levels, the number of reads mapped to the exons of each RefSeq gene was calculated using the functionality provided by the R/Bioconductor package GenomicAlignments. For each cohort, raw counts for genes were trimmed mean of M-values (TMM)-normalised based on size factors as calculated with CalcNormFactors in the edgeR package. […]

[2] = Description: The primary objective was to evaluate the safety and tolerability of the combination by identifying dose-limiting toxicities (DLTs; Supplementary Table 1) that determined the maximum tolerated dose and identifying a potential recommended dose and schedule for subsequent assessments. Safety endpoints included the incidence, nature, and severity of adverse events (AEs) and DLTs according to National Cancer Institute Common Terminology Criteria for Adverse Events version 4.03. Secondary efficacy endpoints comprised objective response rate (ORR) according to Response Evaluation Criteria in Solid Tumours (RECIST) version 1.1, duration of response, progression-free survival (PFS) according to RECIST version 1.1, and overall survival (OS). The PK objective was to determine the PK of rucaparib and atezolizumab combination therapy in plasma and serum, with pre-specified parameters including steady-state maximum concentration observed (Cmax), time to maximum concentration (Tmax), and area under the concentration–time curve (AUC) for rucaparib and serum concentration of atezolizumab in Part 1, and minimum concentration during the dosing interval or trough concentration (Cmin) of rucaparib and serum concentration of atezolizumab in Part 2. The incidence of antidrug antibodies (ADAs) to atezolizumab was an additional secondary endpoint. The study also included pre-specified exploratory biomarker objectives: to evaluate predictive and pharmacodynamic biomarkers of response or resistance to combined rucaparib and atezolizumab therapy in tumour biopsies and blood; and to evaluate additional biomarkers of HRD and novel biomarkers and correlate them with response and/or clinical outcome, including efficacy and safety. No formal statistical analyses were planned.
In Part 1 (dose-finding phase), patients with histologically confirmed ovarian or endometrial cancer who had received at least one prior line of therapy for metastatic disease received varying doses of oral rucaparib (400 mg twice daily in the first cohort, 600 mg twice daily in the second cohort, decreasing to 500 mg in the third cohort if necessary) in combination with a fixed dose of intravenous atezolizumab 1200 mg on Day 1. Cycles were repeated every 21 days and continued until unacceptable toxicity or disease progression if, in the investigator’s opinion, the patient would not derive clinical benefit from continued study treatment. It was planned to enroll ~six to 18 patients in up to three dose cohorts. […] In Part 2 (dose-expansion phase), the recommended Phase II dose was evaluated further for safety, PK, and preliminary activity in two tumour-specific expansion cohorts with an initially targeted enrollment of up to ~50 patients in total. In Cohort 1, eligible patients had platinum-sensitive high-grade serous or grade 3 endometrioid epithelial ovarian, fallopian tube, or primary peritoneal cancer with tumours harbouring a deleterious germline or somatic BRCA mutation (tBRCAmut, Arm A) or a tBRCA-like molecular signature (tBRCA-wild type [wt]/loss of heterozygosity [LOH]high, Arm B). Patients had received one to two prior platinum-containing regimens, with progression >6 months after the last dose of the most recent platinum therapy. In Cohort 2 (Arm C), patients had tBRCAmut or tBRCAwt/LOHhigh TNBC and had received at least one prior line of chemotherapy (without cancer immunotherapy) in the metastatic setting. Part 2 treatment comprised a 21-day run-in period of single-agent rucaparib at the identified recommended rucaparib starting dose (run-in), followed by rucaparib in combination with intravenous atezolizumab 1200 mg on Day 1 (combination). Cycles were repeated every 21 days.

[3] = system: Apoptosis signature; test: RNA sequencing signature in longitudinal tumour biopsies: apoptosis; format: in vivo, human; settings: during run-in, responding patients
Description: as §1

[4] = system: CD8 T-cell activity signature; test: RNA sequencing signature in longitudinal tumour biopsies: CD8 T-cell activity; format: in vivo, human; settings: during rucaparib run-in, in four of five responders
Description: as §1

[5] = system: CD274 (PD-L1 gene); test: RNA sequencing in longitudinal tumour biopsies: CD274; format: in vivo, human; settings: after rucaparib run-in, responders (not in non-responders)
Description: as §1

[6] = clinical; set-up: species or system human; settings: in vivo; for Cmax: female
Description: (§2) No formal statistical analyses were planned.

[7] = system: DNA damage repair signature; test: RNA sequencing signature in longitudinal tumour biopsies: DDR; format: in vivo, human; settings: after the rucaparib run-in
Description: as §1

[8] = system: ovarian cancer, patients with measurable disease; set-up: method as in PMID 32073956; settings: olaparib alone; cited from earlier work
[9] = system: antidrug antibodies (ADAs) to atezolizumab; test: Incidence of antidrug antibodies (ADAs) to atezolizumab; format: in vivo, human; settings: one of 28 patients evaluable for ADA
Description: as §2

[10] = Atezolizumab serum concentration (sparse PK sampling); format: in vivo
Description: as §2

[11] = Part 2 TNBC Arm C, n = 5, run-in
[12] = Part 2 ovarian cancer Arms A + B, n = 14, run-in
[13] = Cycle 1 arithmetic mean (CV), sparse PK sampling, Part 2 ovarian cancer Arm B (tBRCAwt/LOHhigh), n = 4

CNCc1ccc(-c2[nH]c3cc(F)cc4c3c2CCNC4=O)cc1 [rucaparib]
Increase in cGAS-STING pathway activation [1]: > 100%
Grade 5 AE [2, 11]: 0 n (%)
Grade 5 AE [2, 12]: 0 n (%)
AE leading to treatment modification/interruption: Rucaparib ([2]; human, in vivo): 1 (20) n (%)
AE leading to treatment discontinuation ([2]; human, in vivo, 21 days): 0 n (%)
AE leading to treatment modification/interruption ([2]; human, in vivo, 21 days): 1 (20) n (%)
AE leading to treatment modification/interruption: Rucaparib ([2]; human, in vivo, 21 days): 1 (20) n (%)
Any grade AE ([2]; human, in vivo, 21 days): 5 (100) n (%)
Grade 3/4 AE ([2]; human, in vivo, 21 days): 2 (40) n (%)
Treatment-related AE ([2]; human, in vivo, 21 days): 4 (80) n (%)
Patients with increased apoptosis signature expression [3]: three of five
Increase in CD8 + T-cell activity [4]: > 50%
Patients with increased CD274 expression [5]: three of five
Cmax ([6]; human, 400 mg): 2270 ng/mL
Cmax ([6]; human, 600 mg): 3180 ng/mL
Inter-individual variability in exposure, AUC ([6]; human): 21.2–41.6%
Inter-individual variability in exposure, Cmax ([6]; human): 27.4–46.8%
Inter-individual variability in exposure, Cmin ([6]; human): 28.6–88.7%
Tmax ([6]; human): 1.5 to 6 h
Rucaparib AUClast ([6]; human, 400 mg): (n = 2) 15 072 (21.2) h·ng/mL
Rucaparib AUClast ([6]; human, 600 mg): (n = 6) 22 082 (41.6) h·ng/mL
Rucaparib Cmin ([6]; human, 21 days): (n = 5) 1180 (52.5) ng/mL
Dose proportionality of kinetics [6]: dose-proportional kinetics
Patients with decreased DDR signature ([7]; non-responders (by <10%)): one of four
Patients with decreased DDR signature ([7]; responders): four of five

O=C(c1cc(Cc2n[nH]c(=O)c3ccccc23)ccc1F)N1CCN(C(=O)C2CC2)CC1 [olaparib]
ORR [8]: 72%

atezolizumab
Patients positive for treatment-emergent ADAs [9]: 4%
AE leading to treatment modification/interruption: Atezolizumab ([2]; Part 1 Cohort 1 (rucaparib 400 mg), n = 3): 1 (33) n (%)
AE leading to treatment modification/interruption: Atezolizumab ([2]; Part 1 Cohort 2 (rucaparib 600 mg), n = 6): 1 (17) n (%)
AE leading to treatment modification/interruption: Atezolizumab ([2]; Part 2 TNBC Arm C, n = 5, post run-in): 1 (20) n (%)
AE leading to treatment modification/interruption: Atezolizumab [2, 11]: 0 n (%)
AE leading to treatment modification/interruption: Atezolizumab ([2]; Part 2 ovarian cancer Arms A + B, n = 14, post run-in): 5 (36) n (%)
AE leading to treatment modification/interruption: Atezolizumab [2, 12]: 0 n (%)
Atezolizumab Cmin ([10]; Cycle 1 arithmetic mean (CV), sparse PK sampling, Part 1 Cohort 1, n = 3): (n = 3) 84.3 (32.0) μg/mL
Atezolizumab Cmin ([10]; Cycle 1 arithmetic mean (CV), sparse PK sampling, Part 1 Cohort 2, n = 5): (n = 5) 96.0 (23.8) μg/mL
Atezolizumab Cmin ([10]; Cycle 1 arithmetic mean (CV), sparse PK sampling, Part 2 TNBC Arm C, n = 4): (n = 4) 98.7 (26.3) μg/mL
Atezolizumab Cmin ([10]; Cycle 1 arithmetic mean (CV), sparse PK sampling, Part 2 ovarian cancer Arm A (tBRCAmut), n = 10): (n = 10) 77.2 (22.1) μg/mL
Atezolizumab Cmax [10, 13]: (n = 4) 438 (9.4) μg/mL
Atezolizumab Cmin [10, 13]: (n = 4) 95.7 (17.9) μg/mL
Trough concentrations (Ctrough) ([10]; all trough concentrations exceeded the target concentration for maximal receptor occupancy): > 6000 ng/mL
Inter-patient variability, Cmax ([10]; atezolizumab): 7.0–35.3%
Inter-patient variability, Cmin ([10]; atezolizumab): 17.9–32.0%
